Assay results: ChEMBL document CHEMBL2157860, “Optimization of a potent class of arylamide colony-stimulating factor-1 receptor inhibitors leading to anti-inflammatory clinical candidate 4-cyano-N-[2-(1-cyclohexen-1-yl)-4-[1-[(dimethylamino)acetyl]-4-piperidinyl]phenyl]-1H-imidazole-2-carboxamide (JNJ-28312141)” (J Med Chem, 2011)
Values after ≈ are worked out from the molar mass of the structure shown.

What was measured:
[1] = Half life in CD1 mouse at 5 mg/kg, po; format: ADME, organism-based; parameters: dose 5 mg/kg, route oral; details: in vivo
[2] = Cmax in CD1 mouse at 5 mg/kg, po; format: ADME, organism-based; parameters: dose 5 mg/kg, route oral; details: in vivo
[3] = (§1) Apparent volume of distribution in CD1 mouse at 0.5 mg/kg, iv; format: ADME, organism-based; parameters: dose 0.5 mg/kg, route intravenous; details: CD1, mouse, in vivo, read-out: Vz
[4] = Oral bioavailability in CD1 mouse at 5 mg/kg; format: ADME, organism-based; details: in vivo
[5] = Clearance in CD1 mouse at 0.5 mg/kg, iv; format: ADME, organism-based; parameters: dose 0.5 mg/kg, route intravenous; details: in vivo
[6] = Solubility of the compound in PBS; format: physicochemical
[7] = AUClast in CD1 mouse at 5 mg/kg, po; format: ADME, organism-based; parameters: time 0 - last, dose 5 mg/kg, route oral; details: plasma
[8] = Metabolic stability in mouse liver microsomes assessed as compound remaining after 10 mins; format: ADME, Microsome; details: read-out: Stability
[9] = (§2) Half life in CD1 mouse at 0.5 mg/kg, iv; format: ADME, organism-based; parameters: dose 0.5 mg/kg, route intravenous; details: CD1, mouse, in vivo
[10] = Metabolic stability in human liver microsomes assessed as compound remaining after 10 mins; format: ADME, Microsome; details: read-out: Stability
[11] = Tmax in CD1 mouse at 5 mg/kg, po; format: ADME, organism-based; parameters: dose 5 mg/kg, route oral; details: in vivo
[12] = Drug uptake in CD1 mouse at 5 mg/kg, po after 4 hrs; format: ADME, organism-based; parameters: dose 5 mg/kg, route oral; details: in vivo, read-out: Drug uptake
[13] = test system: Mus musculus; experiment: (§3) Drug uptake in CD1 mouse at 5 mg/kg, po after 8 hrs; format: ADME, organism-based; parameters: dose 5 mg/kg, route oral; details: mouse, in vivo, 8 h, BLD = below limit of detection
[14] = test system: Liver; experiment: Metabolic stability in mouse liver microsomes assessed as glutathione conjugation at 20 to 40 uM after 1 hr by LC/MS analysis; format: ADME, Microsome
[15] = test system: Mus musculus; experiment: as §1; format: ADME, organism-based; parameters: dose 0.5 mg/kg, route intravenous; details: mouse, in vivo
[16] = test system: Mus musculus; experiment: as §2; format: ADME, organism-based; parameters: dose 0.5 mg/kg, route intravenous; details: mouse, in vivo
[17] = as §3; format: ADME, organism-based; parameters: dose 5 mg/kg, route oral; details: CD1, mouse, in vivo, read-out: Drug uptake

| Structure (SMILES) | half-life [1] | Cmax [2] | Vd [3] | bioavailability [4] | clearance [5] | solubility [6] | AUC(0-t) [7] | remaining at 10 min [8] | half-life [9] | remaining at 10 min [10] | also measured |
| --- | --- | --- | --- | --- | --- | --- | --- | --- | --- | --- | --- |
| CN(C)CC(=O)N1CCC(c2ccc(NC(=O)c3nc(C#N)c[nH]3)c(C3=CCCCC3)c2)CC1 | 2.33 h | 296 ng/mL | 7.11 L/kg | 83% | 60.6 mL/min/kg | 37.3 µM (≈ 17.2 µg/mL) | 1020 ng·h/mL | 81% | 1.36 h | 87% |  |
| N#Cc1c[nH]c(C(=O)Nc2ccc(C3CCNCC3)cc2C2=CCCCC2)n1.O=C(O)C(F)(F)F | 2 h | 50 ng/mL | 32 L/kg | 12% | 51.7 mL/min/kg | 38.8 µM | 95.2 ng·h/mL | 96% | 7.16 h | 100% | Tmax [11]: 0.25 h; concentration at 4 h [12]: 7 ng/mL; Drug uptake [13]: BLD; Stability [14]: Stable |
| N#Cc1c[nH]c(C(=O)Nc2ccc(C3CCN(c4ccccn4)CC3)cc2C2=CCCCC2)n1 |  |  |  |  |  |  |  | 77% |  | 77% |  |
| N#CCCN1CCC(c2ccc(NC(=O)c3nc(C#N)c[nH]3)c(C3=CCCCC3)c2)CC1 |  |  |  |  |  | 11.8 µM (≈ 5.06 µg/mL) |  | 93% |  | 100% |  |
| N#Cc1c[nH]c(C(=O)Nc2ccc(C3CCN(Cc4ccccn4)CC3)cc2C2=CCCCC2)n1 |  |  |  |  |  |  |  | 79% |  | 75% |  |
| N#Cc1c[nH]c(C(=O)Nc2ccc(C3CCN(CCO)CC3)cc2C2=CCCCC2)n1 |  |  |  |  |  | > 40 µM |  | 89% |  | 100% |  |
| N#Cc1c[nH]c(C(=O)Nc2ccc(C3CCN(C(CO)CO)CC3)cc2C2=CCCCC2)n1 |  |  |  |  |  |  |  | 94% |  | 100% |  |
| CS(=O)(=O)CCN1CCC(c2ccc(NC(=O)c3nc(C#N)c[nH]3)c(C3=CCCCC3)c2)CC1 | 1.55 h | 866 ng/mL | 3.84 L/kg | 88% | 30.7 mL/min/kg | 4.2 µM (≈ 2.02 µg/mL) | 2130 ng·h/mL | 98% | 1.44 h | 94% |  |
| N#Cc1c[nH]c(C(=O)Nc2ccc(C3CCN(CC(N)=O)CC3)cc2C2=CCCCC2)n1 | 0.88 h | 55 ng/mL | 6.43 L/kg | 9.8% | 53.3 mL/min/kg | 28.6 µM (≈ 12.4 µg/mL) | 141 ng·h/mL | 79% | 1.39 h | 81% |  |
| N#Cc1c[nH]c(C(=O)Nc2ccc(C3CCN(CC(=O)O)CC3)cc2C2=CCCCC2)n1 |  |  |  |  |  |  |  | 70% |  | 98% |  |
| N#Cc1c[nH]c(C(=O)Nc2ccc(C3CCN(CCN4CCOCC4)CC3)cc2C2=CCCCC2)n1 | 2.37 h | 461 ng/mL |  | 101% |  | 25.9 µM (≈ 12.7 µg/mL) | 1550 ng·h/mL | 96% |  | 77% | Vz [15]: 8.99 L/kg; t1/2 [16]: 0.23 h |
| N#Cc1c[nH]c(C(=O)Nc2ccc(C3CCN(C(=O)c4cccnc4)CC3)cc2C2=CCCCC2)n1 |  |  |  |  |  |  |  | 66% |  | 56% |  |
| N#Cc1c[nH]c(C(=O)Nc2ccc(C3CCN(C(=O)[C@H](O)CO)CC3)cc2C2=CCCCC2)n1 |  |  |  |  |  |  |  | 100% |  | 89% |  |
| N#Cc1c[nH]c(C(=O)Nc2ccc(C3CCN(C(=O)CNCCO)CC3)cc2C2=CCCCC2)n1 |  |  |  |  |  |  |  | 79% |  | 67% |  |
| CN(CCO)CC(=O)N1CCC(c2ccc(NC(=O)c3nc(C#N)c[nH]3)c(C3=CCCCC3)c2)CC1 |  |  |  |  |  |  |  | 60% |  | 69% |  |
| CS(=O)(=O)CC(=O)N1CCC(c2ccc(NC(=O)c3nc(C#N)c[nH]3)c(C3=CCCCC3)c2)CC1 | 1.55 h | 24 ng/mL | 1.58 L/kg | 2.3% | 23.9 mL/min/kg | 0.91 µM (≈ 0.451 µg/mL) | 125 ng·h/mL | 86% | 1.2 h | 100% |  |
| N#Cc1c[nH]c(C(=O)Nc2ccc(C3CCN(C(=O)c4ccc[n+]([O-])c4)CC3)cc2C2=CCCCC2)n1 |  |  |  |  |  |  |  | 89% |  | 100% |  |
| N#Cc1c[nH]c(C(=O)Nc2ccc(C3CCN(C(=O)c4cc[n+]([O-])cc4)CC3)cc2C2=CCCCC2)n1 |  |  |  |  |  |  |  | 92% |  | 100% |  |
| N#Cc1c[nH]c(C(=O)Nc2ccc(C3CCN(C(=O)Cc4c[nH]cn4)CC3)cc2C2=CCCCC2)n1 |  |  |  |  |  |  |  | 100% |  | 89% |  |
| Cn1cnc(CC(=O)N2CCC(c3ccc(NC(=O)c4nc(C#N)c[nH]4)c(C4=CCCCC4)c3)CC2)c1 | 0.4 h | 81 ng/mL | 3.85 L/kg | 13% | 81.8 mL/min/kg | 36.7 µM (≈ 18.3 µg/mL) | 101 ng·h/mL | 90% | 0.54 h | 82% |  |
| N#Cc1c[nH]c(C(=O)Nc2ccc(C3CCN(C(=O)Cc4ccccn4)CC3)cc2C2=CCCCC2)n1 |  |  |  |  |  | 1.6 µM (≈ 0.791 µg/mL) |  | 37% |  | 34% |  |
| N#Cc1c[nH]c(C(=O)Nc2ccc(C3CCN(C(=O)Cc4cccnc4)CC3)cc2C2=CCCCC2)n1 |  |  |  |  |  | 10.4 µM (≈ 5.14 µg/mL) |  | 21% |  | 28% |  |
| N#Cc1c[nH]c(C(=O)Nc2ccc(C3CCN(C(=O)Cc4ccncc4)CC3)cc2C2=CCCCC2)n1 | 0.23 h | 118 ng/mL | 7.27 L/kg | 18% | 205 mL/min/kg | 0.39 µM (≈ 0.193 µg/mL) | 68 ng·h/mL | 24% | 0.41 h | 11% |  |
| N#Cc1c[nH]c(C(=O)Nc2ccc(C3CCN(C(=O)CCN4CCOCC4)CC3)cc2C2=CCCCC2)n1 |  |  |  |  |  |  |  | 23% |  | 57% |  |
| N#Cc1c[nH]c(C(=O)Nc2ccc(C3CCN(C(=O)CN4CCOCC4)CC3)cc2C2=CCCCC2)n1 |  |  |  |  |  |  |  | 23% |  | 66% |  |
| CC(C)(N)C(=O)N1CCC(c2ccc(NC(=O)c3nc(C#N)c[nH]3)c(C3=CCCCC3)c2)CC1 |  |  |  |  |  |  |  | 93% |  | 94% |  |
| N#Cc1c[nH]c(C(=O)Nc2ccc(C3CCN(C(=O)NCCO)CC3)cc2C2=CCCCC2)n1 | 1.63 h | 24 ng/mL | 10.3 L/kg | 9.3% | 49.2 mL/min/kg | 8.2 µM (≈ 3.79 µg/mL) | 129 ng·h/mL | 61% | 2.41 h | 80% |  |
| N#Cc1c[nH]c(C(=O)Nc2ccc(C3CCN(C(N)=O)CC3)cc2C2=CCCCC2)n1 |  |  |  |  |  |  |  | 70% |  | 78% |  |
| CC1CCN(c2cc(N3CCN(C)CC3)ccc2NC(=O)c2ccc(C#N)o2)CC1 | 3.1 h | 285 ng/mL | 12.3 L/kg | 75% | 46 mL/min/kg |  | 1160 ng·h/mL |  | 3 h |  | Tmax [11]: 0.5 h; concentration at 4 h [12]: 183 ng/mL; concentration at 8 h [17]: 64 ng/mL |
| CC(=O)N1CCC(c2ccc(NC(=O)c3nc(C#N)c[nH]3)c(C3=CCCCC3)c2)CC1 | 1.88 h | 209 ng/mL | 2.8 L/kg | 15% | 27 mL/min/kg | 26.1 µM (≈ 10.9 µg/mL) | 454 ng·h/mL | 86% | 1.2 h | 95% | Tmax [11]: 0.5 h; concentration at 4 h [12]: 54 ng/mL; concentration at 8 h [17]: 9 ng/mL; Stability [14]: Stable |
